# Biological target: NADH-dependent nitrate reductase ([Candida] boidinii, UniProt A0ACB5TRL5)
# Sequence (A0ACB5TRL5 entry or part of it): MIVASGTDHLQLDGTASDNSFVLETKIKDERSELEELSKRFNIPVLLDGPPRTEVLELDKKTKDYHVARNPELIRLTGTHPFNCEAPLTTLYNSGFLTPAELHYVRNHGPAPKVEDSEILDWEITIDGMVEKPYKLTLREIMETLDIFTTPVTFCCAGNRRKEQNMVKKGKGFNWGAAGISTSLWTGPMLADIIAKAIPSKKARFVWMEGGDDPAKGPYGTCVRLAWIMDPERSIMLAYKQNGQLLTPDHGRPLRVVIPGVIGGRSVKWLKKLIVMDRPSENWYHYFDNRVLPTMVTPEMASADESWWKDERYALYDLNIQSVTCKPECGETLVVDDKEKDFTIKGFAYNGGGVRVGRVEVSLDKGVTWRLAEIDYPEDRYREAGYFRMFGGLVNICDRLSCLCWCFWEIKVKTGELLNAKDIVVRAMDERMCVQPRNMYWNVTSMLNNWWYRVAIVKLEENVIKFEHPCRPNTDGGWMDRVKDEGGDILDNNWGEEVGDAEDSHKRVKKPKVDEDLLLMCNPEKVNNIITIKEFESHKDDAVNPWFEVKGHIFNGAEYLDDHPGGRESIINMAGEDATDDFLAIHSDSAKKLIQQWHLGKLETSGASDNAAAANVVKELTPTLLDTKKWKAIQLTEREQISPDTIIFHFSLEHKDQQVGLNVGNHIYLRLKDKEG
structure (smiles),measurement,value
O=NO [nitrite],End-product inhibition,up to 50%
